Experimental data: patent US20240342186A1, “PYRIDINE DERIVATIVES WITH N-LINKED CYCLIC SUBSTITUENTS AS cGAS INHIBITORS” (Boehringer Ingelheim International GmbH, priority 2021, published 2024)
Where two headings read alike, the source gives them in different places.

How the values were obtained:
cGAS = cGAS (Homo sapiens (Human), UniProt Q8N884); experiment: Human cGAS enzyme assay (hcGAS IC50, in vitro), cGAMP formation by RapidFire MS; assay type: biochemical;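 also: enzyme activated by 45 bp dsDNA with GTP and ATP (30 µM each), 60 min compound pre-incubation then 90 min reaction, cGAMP relative to cyclic-di-GMP internal standard, 8-point dilutions up to 10 µM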
[1] = test system: cellular cGAS activity in baculovirus-stimulated THP1-Dual cells (IRF dependent Lucia luciferase reporter); experiment: Human cGAS cell assay: inhibition of IFN induction in virus-stimulated THP1 cells (THP1(vir) IC50); assay type: cell-based
Description: (§1) 6.2 Method: Human cGAS Cell Assay and cGAMP Stimulated Counter Cell Assay (THP1(vir) IC50 and THP1(cGAMP) IC50)
(§2) THP1-Dual™ cells (InvivoGen #thpd-nfis) expressing IRF dependent Lucia luciferase reporter were used as basis for both assays. For the detection of cellular cGAS activity cells were stimulated by a baculovirus (pFastbac-1, Invitrogen, no coding insert) infection that delivers the cGAS enzyme stimulating double-stranded DNA (measurement of THP1(vir) IC50).
(§3) For the counter assay, cells were stimulated by cGAMP (SigmaAldrich #SML1232) to activate the identical pathway independent and directly downstream of cGAS (measurement of THP1(cGAMP) IC50). Pathway activity was monitored by measuring the Lucia luciferase activity induced by either DNA stimulated cGAS enzyme activity (measurement of THP1(vir) IC50) or by cGAMP directly (measurement of THP1(cGAMP) IC50, counter assay).
(§4) Compounds were delivered in 10 mM DMSO solution, serially diluted and transferred to the 384 well assay plate (Greiner #781201) using an Echo acoustic dispenser. Typically, 8 concentrations were used with the highest concentration at 10 μM in the final assay volume followed by ˜1:5 dilution steps. DMSO concentration was set to 1% in the final assay volume. The 384 well assay plate contained 21 test compounds (column 1-22), and DMSO in column 23 and 24.
(§5) Cells, cultivated according to manufacturer conditions, were harvested by centrifugation at 300 g/10 min and were then resuspended and diluted to 1.66E5 cells/ml in fresh cell culture medium (RPMI 1640 (Gibco #A10491-01), 10% FCS (Gibco #10500), 1× GlutaMax (Gibco #35050-061), 1× Pen/Strep solution (Gibco #15140-122), 100 μg/ml Normocin (InvivoGen #ant-nr), 100 μg/ml Zeocin (InvivoGen #ant-zn), 10 μg/ml Blasticidin S (Life Technologies #A11139-03)). The baculovirus solution was then added 1:200 (have varied according to virus batch) to the cells (measurement of THP1(vir) IC50).
(§6) 30 μL of the cell/virus-mix were added to each well of the compound plate from column 1-23 via MultiDrop Combi dispenser (5000 cells/well). In column 24, 30 μl/5000 cells/well without virus were added as a low control.
(§7) The plates were then incubated for 18 h at 37° C. in a humidified incubator.
(§8) Following that, 15 μl of QuantiLuc detection reagent (InvivoGen #rep-qlcg5) were added to each well using a MultiDrop Combi. Measurement was done immediately after the addition using an EnVision reader (US-luminescence read-mode).
(§9) For data evaluation and calculation, the measurement of the low control was set as 0% control and the measurement of the high control was set as 100% control. The IC50 values were calculated using the standard 4 parameter logistic regression formula. Calculation: [y=(a−d)/(1+(x/c)^b)+d], a=low value, d=high value; x=conc M; c=IC50 M; b=slope

[2] = test system: cGAMP-stimulated THP1-Dual cells (pathway directly downstream of cGAS); experiment: cGAMP stimulated counter cell assay: inhibition of IFN induction in cGAMP-stimulated THP1 cells (THP1(cGAMP) IC50); assay type: cell-based, human; conditions: for IC50: read-out: THP1(cGAMP) IC50 (converted); for Ratio THP1(cGAMP) IC50 / THP1(vir) IC50: selectivity for cGAS inhibition
Description: as §1, §2, §3, §4, §5, §6, §7, §8, §9

[3] = test system: cellular cGAS activity in dsDNA-stimulated human whole blood; experiment: Human whole blood assay (hWB IC50): IFNα2α production after dsDNA transfection; assay type: cell-based
Method: 6.3 Method: Human Whole Blood Assay (Human WB IC50)
For the detection of cellular cGAS activity human whole blood was stimulated by transfection with double stranded DNA. Pathway activity was monitored by measuring the IFNα2α production.
Compounds were delivered as 10 mM DMSO solution and serially diluted and transferred to the 96-well cell culture plate (Corning #3595), prefilled with 20 μl OptiMEM (Gibco, #11058-021) in each well, using an Echo acoustic dispenser. Typically, 8 concentrations were used with the highest concentration at 10 µM in the final assay volume followed by ˜1:5 dilution steps. DMSO concentration was set to 0.1% in the final assay volume. The 96-well assay plate contained 10 test compounds, and DMSO in control wells.
Collection of human whole blood from 3 or more healthy donors (male or female, no medication for 7 days except contraceptive and thyroxine) as Na-Citrate blood (e.g. 3.8% in Monovettes from Sarstedt) was conducted in parallel. Whole blood was kept at room temperature for a maximum of 3 hours after collection until use in the assay.
160 μl of the whole blood samples was transferred to each well of the 96-well assay plates filled with compound/OptiMEM. All assay plates were prepared as duplicates with blood from different donors. Blood plates were kept at room temperature for 60 minutes and continuous shaking with 450 rpm, covered with the lid, but not sealed.
20 μl OptiMEM and 9.6:1 Fugene was added to all low control wells.
After covering assay plates with aera seals and the lid, blood plates were kept at room temperature for 30 minutes and continuous shaking with 450 rpm, followed by an overnight incubation of 22 h at 37° C. in the incubator, without shaking.
For the detection of IFNα-2α in human plasma, the biotinylated capture antibody (Antibody set IFNA2, Meso Scale Diagnostics #B21VH-3, including coating and capture antibody) was diluted 1:17.5 in Diluent 100 (Meso Scale Diagnostics #R^50AA-4), according to the manufacturer's directions. U-Plex MSD GOLD 96-well Small Spot Strepavidin SECTOR Plates (Meso Scale Diagnostics #L45SA-5) were coated with 25 μl diluted capture antibody. Coated plates were incubated for 60 min at room temperature under continuous shaking at 700 rpm. MSD IFNα-2α plates were washed three times with 150 μl wash buffer (1x HBSS, 0.05% Tween).
After blocking the plates with 100 μl block solution/well (1x HBSS with 0.2% Tween, 2% BSA) for 60 min at room temperature and continuous shaking at 700 rpm, plates were emptied as dry as possible by dumping just before continuing with the human plasma.
Whole Blood assay plates were centrifuged at 1600 rpm for 10 minutes. 25 μl of supernatant was transferred with a pipetting robot from each whole blood plate to the corresponding IFNα-2α plate. Plates were sealed with microplate seals and kept at room temperature again under continuous shaking at 700 rpm for two hours.
Next MSD IFNα-2α plates were washed three times with 150 μl wash buffer (1×HBSS, 0.05% Tween), before adding 25 μl MSD SULFO-TAG IFNα-2α Antibody solution (1:100 diluted in Diluent 3 (Meso Scale Diagnostics #R50AP-2) to each well of the plates.
Afterwards plates were sealed with microplate seals and kept at room temperature again under continuous shaking at 700 rpm for two hours. Finally, MSD IFNα-2α plates were washed three times with 150 μl wash buffer (1×HBSS, 0.05% Tween). 150 μl 2× Read buffer was added to each well and plates were immediately measured with the MSD Sector S600 Reader using the vendor barcode.
For data evaluation and calculation, % control calculation of each well was based on the mean of high (DNA stimulated control) and mean of low (unstimulated control) controls by using the following formula:
[counts(sample)−counts(low))/(counts(high)−counts(low))]*100
The IC50 values were calculated using the standard 4 parameter logistic regression formula. Calculation: [y=(a−d)/(1+(x/c)^b)+d], a=low value, d=high value; x=conc M; c=IC50 M; b=slope

[4] = biochemical (in vitro) cGAS inhibition
[5] = Homo sapiens, THP1-Dual, inhibition of IFN induction in virus-stimulated THP1 cells, read-out: THP1(vir) IC50
[6] = Homo sapiens, THP1-Dual, inhibition of IFN induction in cGAMP-stimulated THP1 cells
[7] = inhibition of IFN induction in dsDNA-stimulated human whole blood

Chain of cGAS (Q8N884 whole entry): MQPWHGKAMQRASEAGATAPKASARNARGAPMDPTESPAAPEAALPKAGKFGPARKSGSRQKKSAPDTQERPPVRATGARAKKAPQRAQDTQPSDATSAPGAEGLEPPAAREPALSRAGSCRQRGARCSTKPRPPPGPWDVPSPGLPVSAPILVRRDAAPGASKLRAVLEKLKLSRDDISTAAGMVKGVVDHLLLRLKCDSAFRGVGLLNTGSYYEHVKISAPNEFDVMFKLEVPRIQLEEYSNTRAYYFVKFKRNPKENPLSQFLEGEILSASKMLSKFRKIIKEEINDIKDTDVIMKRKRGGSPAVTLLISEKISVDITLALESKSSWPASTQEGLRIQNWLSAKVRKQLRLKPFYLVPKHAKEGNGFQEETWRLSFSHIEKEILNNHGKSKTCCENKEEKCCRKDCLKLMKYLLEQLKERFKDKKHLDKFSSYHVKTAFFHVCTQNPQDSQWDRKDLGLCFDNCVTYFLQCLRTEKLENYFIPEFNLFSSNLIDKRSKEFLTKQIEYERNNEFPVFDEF

## C#Cc1cnc(O[C@H]2C[C@@H](C(=O)O)N(c3nc(C(F)(F)C(F)(F)F)nc4c3oc3ccccc34)C2)c(N2CCOC3(COC3)[C@@H]2C)c1 [Example 1.17]
cGAS; [4]
  IC50: 17 nM
[1]; [5]
  IC50: 154 nM
[2]; [6]
  IC50: > 16600 nM
[2]
  Ratio THP1(cGAMP) IC50 / THP1(vir) IC50: >108
[3]; [7]
  IC50: 305 nM

## COC(=O)[C@@H]1C[C@H](Oc2ncc(Br)cc2N2CCOC3(COC3)[C@@H]2C)CN1c1nc(C(F)(F)F)nc2c1oc1ccccc12 [Example P02]
cGAS; biochemical (in vitro), human cGAS, 45 bp dsDNA, GTP/ATP
  IC50: > 9950 nM
[1]; Homo sapiens, THP1-Dual, read-out: THP1(vir) IC50, virus-stimulated THP1 cells, IFN induction
  IC50: 444 nM
[2]; Homo sapiens, THP1-Dual, cGAMP-stimulated THP1 cells, counter assay
  IC50: 17100 nM
[3]; dsDNA-stimulated human whole blood, IFN induction
  IC50: 5330 nM

## C[C@@H]1N(c2cc(-c3cn(C)nn3)cnc2O[C@H]2C[C@@H](C(=O)O)N(c3nc(C(F)(F)F)nc4c3oc3ccccc34)C2)CCOC12COC2 [Example 8.01, (2S,4S)-4-{[5-(1-methyl-1H-1,2,3-triazol-4-yl)-3-[(95)-9-methyl-2,5-dioxa-8-azaspiro[3.5]nonan-8-yl]pyridin-2-yl]oxy}-1-[4-(trifluoromethyl)-8-oxa-3,5-diazatricyclo[7.4.0.0^2,7]trideca-1(9),2(7),3,5,10,12-hexaen-6-yl]pyrrolidine-2-carboxylic acid]
cGAS; [4]
  IC50: 5 nM
[1]; [5]
  IC50: 11 nM
[2]; [6]
  IC50: 14900 nM
[2]
  Ratio THP1(cGAMP) IC50 / THP1(vir) IC50: 1366
[3]; [7]
  IC50: 21 nM

## (2S,4S)-4-({3-[(95)-9-Methyl-2,5-dioxa-8-azaspiro[3.5]nonan-8-yl]-5-(pyrimidin-5-yl)pyridin-2-yl}oxy)-1-[4-(trifluoromethyl)-8-oxa-3,5-diazatricyclo[7.4.0.0^2,7]trideca-1(9),2(7),3,5,10,12-hexaen-6-yl]pyrrolidine-2-carboxylic acid [Example 7.01]
cGAS; [4]
  IC50: 14 nM
[1]; inhibition of IFN induction in virus-stimulated THP1 cells, read-out: THP1(vir) IC50
  IC50: 5 nM
[2]; inhibition of IFN induction in cGAMP-stimulated THP1 cells
  IC50: 9260 nM
[2]
  Ratio THP1(cGAMP) IC50 / THP1(vir) IC50: 1700
[3]; [7]
  IC50: 50 nM

## C#Cc1cnc(O[C@H]2C[C@@H](C(=O)O)N(c3nc(CF)nc4c3oc3ccccc34)C2)c(N2CCOC3(COC3)[C@@H]2C)c1 [Example 2.04]
cGAS; [4]
  IC50: 1 nM
[1]; [5]
  IC50: 3 nM
[2]; [6]
  IC50: 25400 nM
[2]
  Ratio THP1(cGAMP) IC50 / THP1(vir) IC50: 8125
[3]; [7]
  IC50: 5 nM

## CNc1cc(-c2cnc(O[C@H]3C[C@@H](C(=O)O)N(c4nc(C(F)(F)F)nc5c4oc4ccccc45)C3)c(N3CCOC[C@@H]3C)c2)ccn1 [Example 3.02]
cGAS; [4]
  IC50: 13 nM
[1]; [5]
  IC50: 306 nM
[2]; [6]
  IC50: 4920 nM
[2]
  Ratio THP1(cGAMP) IC50 / THP1(vir) IC50: 16
[3]; [7]
  IC50: 1540 nM

## CC1(C#N)CN(c2cc(Cl)cnc2O[C@H]2C[C@@H](C(=O)O)N(c3nc(C(F)(F)F)nc4c3oc3ccccc34)C2)CCO1 (stereo partly shown) [Example 1.03]
cGAS; [4]
  IC50: 7 nM
[1]; [5]
  IC50: 399 nM
[2]; [6]
  IC50: 15100 nM
[2]
  Ratio THP1(cGAMP) IC50 / THP1(vir) IC50: 38
[3]; [7]
  IC50: 8450 nM
